According to ChEMBL document CHEMBL4190297, “Cafestol, a Bioactive Substance in Coffee, Has Antidiabetic Properties in KKAy Mice” (J Nat Prod, 2017):
Active and inactive are the calls of the source. The calls are words filed in the database; no cut-off is given here.

Assays:
Mus musculus [1] = species on record: Mus musculus; assay: Effect on Lipc mRNA expression levels in liver of KK-Ay diabetic mouse model at 0.4 to 1.1 mg added daily to normal chow pellets for 10 weeks by qRT-PCR analysis; assay type: functional, organism-based
Mus musculus [2] = species on record: Mus musculus; assay: Effect on Sirt1 mRNA expression levels in adipose tissue of KK-Ay diabetic mouse model at 0.4 to 1.1 mg added daily to normal chow pellets for 10 weeks by qRT-PCR analysis; assay type: functional, organism-based
Mus musculus [3] = species on record: Mus musculus; assay: Effect on InsR mRNA expression levels in muscle of KK-Ay diabetic mouse model at 0.4 to 1.1 mg added daily to normal chow pellets for 10 weeks by qRT-PCR analysis; assay type: functional, organism-based
Mus musculus [4] = species on record: Mus musculus; assay: Effect on AMPKalpha2 mRNA expression levels in liver of KK-Ay diabetic mouse model at 0.4 to 1.1 mg added daily to normal chow pellets for 10 weeks by qRT-PCR analysis; assay type: functional, organism-based
Mus musculus [5] = species on record: Mus musculus; assay: Effect on 18s rRNA expression levels in muscle of KK-Ay diabetic mouse model at 0.4 to 1.1 mg added daily to normal chow pellets for 10 weeks by qRT-PCR analysis; assay type: functional, organism-based
Mus musculus [6] = species on record: Mus musculus; assay: Toxicity in KK-Ay diabetic mouse model assessed as effect on average 24 hrs food consumption by measured food consumption at 1.1 mg added daily to normal chow pellets for 10 weeks (reference value: 4.7 +/- 0.2 g); assay type: organism-based; settings: in vivo, po
Mus musculus [7] = species on record: Mus musculus; assay: Effect on SOD2 mRNA expression levels in liver of KK-Ay diabetic mouse model at 0.4 to 1.1 mg added daily to normal chow pellets for 10 weeks by qRT-PCR analysis; assay type: functional, organism-based
Mus musculus [8] = species on record: Mus musculus; assay: Effect on IRS2 mRNA expression levels in adipose tissue of KK-Ay diabetic mouse model at 0.4 to 1.1 mg added daily to normal chow pellets for 10 weeks by qRT-PCR analysis; assay type: functional, organism-based
Mus musculus [9] = species on record: Mus musculus; assay: Effect on PPARGC1alpha mRNA expression levels in adipose tissue of KK-Ay diabetic mouse model at 0.4 to 1.1 mg added daily to normal chow pellets for 10 weeks by qRT-PCR analysis; assay type: functional, organism-based
Mus musculus [10] = species on record: Mus musculus; assay: Antidiabetic activity in KK-Ay diabetic mouse model assessed as non-fasting blood glucose level at 0.4 mg added daily to normal chow pellets for 10 weeks (reference value: 26.2 +/- 1.2 mmol/L); assay type: functional
Mus musculus [11] = species on record: Mus musculus; assay: Effect on GYS2 mRNA expression levels in adipose tissue of KK-Ay diabetic mouse model at 0.4 to 1.1 mg added daily to normal chow pellets for 10 weeks by qRT-PCR analysis; assay type: functional, organism-based
Mus musculus [12] = species on record: Mus musculus; assay: Effect on FABP4 mRNA expression levels in adipose tissue of KK-Ay diabetic mouse model at 0.4 to 1.1 mg added daily to normal chow pellets for 10 weeks by qRT-PCR analysis; assay type: functional, organism-based
Mus musculus [13] = species on record: Mus musculus; assay: Effect on Abca1 mRNA expression levels in muscle of KK-Ay diabetic mouse model at 0.4 to 1.1 mg added daily to normal chow pellets for 10 weeks by qRT-PCR analysis; assay type: functional, organism-based
Mus musculus [14] = species on record: Mus musculus; assay: Effect on Pi3K mRNA expression levels in liver of KK-Ay diabetic mouse model at 0.4 to 1.1 mg added daily to normal chow pellets for 10 weeks by qRT-PCR analysis; assay type: functional, organism-based
Mus musculus [15] = species on record: Mus musculus; assay: Effect on AMPKalpha2 mRNA expression levels in adipose tissue of KK-Ay diabetic mouse model at 0.4 to 1.1 mg added daily to normal chow pellets for 10 weeks by qRT-PCR analysis; assay type: functional, organism-based
Mus musculus [16] = species on record: Mus musculus; assay: Effect on PPARalpha mRNA expression levels in adipose tissue of KK-Ay diabetic mouse model at 0.4 to 1.1 mg added daily to normal chow pellets for 10 weeks by qRT-PCR analysis; assay type: functional, organism-based
Mus musculus [17] = species on record: Mus musculus; assay: Effect on CD36 mRNA expression levels in adipose tissue of KK-Ay diabetic mouse model at 0.4 to 1.1 mg added daily to normal chow pellets for 10 weeks by qRT-PCR analysis; assay type: functional, organism-based
Mus musculus [18] = species on record: Mus musculus; assay: Effect on Sirt1 mRNA expression levels in muscle of KK-Ay diabetic mouse model at 0.4 to 1.1 mg added daily to normal chow pellets for 10 weeks by qRT-PCR analysis; assay type: functional, organism-based
Mus musculus [19] = species on record: Mus musculus; assay: Effect on Adipor1 mRNA expression levels in liver of KK-Ay diabetic mouse model at 0.4 to 1.1 mg added daily to normal chow pellets for 10 weeks by qRT-PCR analysis; assay type: functional, organism-based
Mus musculus [20] = species on record: Mus musculus; assay: Effect on Hprt1 mRNA expression levels in muscle of KK-Ay diabetic mouse model at 0.4 to 1.1 mg added daily to normal chow pellets for 10 weeks by qRT-PCR analysis; assay type: functional, organism-based
Mus musculus [21] = species on record: Mus musculus; assay: Effect on FAS mRNA expression levels in adipose tissue of KK-Ay diabetic mouse model at 0.4 to 1.1 mg added daily to normal chow pellets for 10 weeks by qRT-PCR analysis; assay type: functional, organism-based
Mus musculus [22] = species on record: Mus musculus; assay: Effect on Adipor1 mRNA expression levels in muscle of KK-Ay diabetic mouse model at 0.4 to 1.1 mg added daily to normal chow pellets for 10 weeks by qRT-PCR analysis; assay type: functional, organism-based
Mus musculus [23] = species on record: Mus musculus; assay: Effect on Sirt1 mRNA expression levels in liver of KK-Ay diabetic mouse model at 0.4 to 1.1 mg added daily to normal chow pellets for 10 weeks by qRT-PCR analysis; assay type: functional, organism-based
Mus musculus [24] = species on record: Mus musculus; assay: Effect on GYS2 mRNA expression levels in muscle of KK-Ay diabetic mouse model at 0.4 to 1.1 mg added daily to normal chow pellets for 10 weeks by qRT-PCR analysis; assay type: functional, organism-based
Mus musculus [25] = species on record: Mus musculus; assay: Effect on G6PD mRNA expression levels in adipose tissue of KK-Ay diabetic mouse model at 0.4 to 1.1 mg added daily to normal chow pellets for 10 weeks by qRT-PCR analysis; assay type: functional, organism-based
Mus musculus [26] = species on record: Mus musculus; assay: Effect on Abca1 mRNA expression levels in liver of KK-Ay diabetic mouse model at 0.4 to 1.1 mg added daily to normal chow pellets for 10 weeks by qRT-PCR analysis; assay type: functional, organism-based
Mus musculus [27] = species on record: Mus musculus; assay: Effect on PPARalpha mRNA expression levels in muscle of KK-Ay diabetic mouse model at 0.4 to 1.1 mg added daily to normal chow pellets for 10 weeks by qRT-PCR analysis; assay type: functional, organism-based
Mus musculus [28] = species on record: Mus musculus; assay: Effect on water-fat fraction in liver of KK-Ay diabetic mouse model at 0.4 to 1.1 mg added daily to normal chow pellets for 10 weeks by MR spectroscopic analysis; assay type: functional, organism-based
Mus musculus [29] = species on record: Mus musculus; assay: Effect on JNK1 mRNA expression levels in liver of KK-Ay diabetic mouse model at 0.4 to 1.1 mg added daily to normal chow pellets for 10 weeks by qRT-PCR analysis; assay type: functional, organism-based
Mus musculus [30] = species on record: Mus musculus; assay: Effect on PPARGC1alpha mRNA expression levels in liver of KK-Ay diabetic mouse model at 0.4 to 1.1 mg added daily to normal chow pellets for 10 weeks by qRT-PCR analysis; assay type: functional, organism-based
Mus musculus [31] = species on record: Mus musculus; assay: Effect on Akt2 mRNA expression levels in adipose tissue of KK-Ay diabetic mouse model at 0.4 to 1.1 mg added daily to normal chow pellets for 10 weeks by qRT-PCR analysis; assay type: functional, organism-based
Mus musculus [32] = species on record: Mus musculus; assay: Effect on PPARgamma mRNA expression levels in adipose tissue of KK-Ay diabetic mouse model at 0.4 to 1.1 mg added daily to normal chow pellets for 10 weeks by qRT-PCR analysis; assay type: functional, organism-based

## C[C@@]12CCc3occc3[C@H]1CC[C@@]13C[C@H](CC[C@H]12)[C@@](O)(CO)C3
Mus musculus [1]
  Activity: inactive
Mus musculus [2]
  Activity: inactive
Mus musculus [3]
  Activity: inactive
Mus musculus [4]
  Activity: inactive
Mus musculus [5]
  Activity: inactive
Mus musculus [6]
  Activity: 5.9 g
Mus musculus [7]
  Activity: inactive
Mus musculus [8]
  Activity: inactive
Mus musculus [9]
  Activity: inactive
Mus musculus [10]
  Activity: 17.3 mmol/L
Mus musculus [11]
  Activity: inactive
Mus musculus [12]
  Activity: inactive
Mus musculus [13]
  Activity: inactive
Mus musculus [14]
  Activity: inactive
Mus musculus [15]
  Activity: inactive
Mus musculus [16]
  Activity: inactive
Mus musculus [17]
  Activity: inactive
Mus musculus [18]
  Activity: inactive
Mus musculus [19]
  Activity: inactive
Mus musculus [20]
  Activity: inactive
Mus musculus [21]
  Activity: inactive
Mus musculus [22]
  Activity: inactive
Mus musculus [23]
  Activity: inactive
Mus musculus [24]
  Activity: inactive
Mus musculus [25]
  Activity: inactive
Mus musculus [26]
  Activity: inactive
Mus musculus [27]
  Activity: inactive
Mus musculus [28]
  Activity: inactive
Mus musculus [29]
  Activity: inactive
Mus musculus [30]
  Activity: inactive
Mus musculus [31]
  Activity: inactive
Mus musculus [32]
  Activity: inactive
